Results on 2 molecules are retold here after patent US20090298708A1, “2'-DEOXY-2'-FLUORO-BETA-D-ARABINONUCLEOSIDE 5'-TRIPHOSPHATES AND THEIR USE IN ENZYMATIC NUCLEIC ACID SYNTHESIS” (priority 2006, published 2009).

Read-outs that look alike come from different tables or passages of the source. Marks after values point to notes of the source that are not given here.

Common to all, as to parameters: key: ++++: excellent (no pausing observed); +++: very good (with slight pausing); ++: Good, full-length products with significant pausing; +: significant pausing, no full-length product but at least one 2′F-araN incorporation detected
Assay [1] addresses T1, Bst DNA polymerase large fragment (Bst) (Geobacillus stearothermophilus, UniProt P52026).
T1 construct: consists of the portion of the Bacillus stearothemmophilus DNA polymerase protein responsible for 5′->3′ polymerase activity but lacks the 5′->3′ exonuclease domain; purchased New England Biolabs
T1 sequence (P52026 289-876 limits assumed): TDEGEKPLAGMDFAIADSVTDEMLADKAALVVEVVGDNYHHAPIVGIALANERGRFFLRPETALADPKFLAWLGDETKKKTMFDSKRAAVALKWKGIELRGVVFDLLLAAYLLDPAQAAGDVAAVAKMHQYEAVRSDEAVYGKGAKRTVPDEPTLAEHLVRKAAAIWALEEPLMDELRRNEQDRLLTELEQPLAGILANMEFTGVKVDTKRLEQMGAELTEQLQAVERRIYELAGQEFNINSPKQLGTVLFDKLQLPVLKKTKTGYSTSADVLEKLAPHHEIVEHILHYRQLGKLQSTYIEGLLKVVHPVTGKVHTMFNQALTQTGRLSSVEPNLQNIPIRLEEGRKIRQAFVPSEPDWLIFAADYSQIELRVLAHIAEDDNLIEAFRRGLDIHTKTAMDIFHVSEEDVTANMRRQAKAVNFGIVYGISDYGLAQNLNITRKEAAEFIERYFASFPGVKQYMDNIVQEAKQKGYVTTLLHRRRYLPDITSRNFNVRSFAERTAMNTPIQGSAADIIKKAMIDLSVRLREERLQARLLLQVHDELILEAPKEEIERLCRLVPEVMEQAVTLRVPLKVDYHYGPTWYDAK
Kind of assay: Primer extension assay with Bst DNA polymerase large fragment. The assay is classed as biochemical. Particulars: for Incorporation of three 2′F-araTTP / 2′F-araCTP (incorporation efficiency): DNA template PF22 (2′F-araTTP) or PF24 (2′F-araCTP); for Enzymatic activity during primer extension reactions: plus dATP, dGTP. How it is done:
(§1) Various different types of DNA polymerases were assessed, including the mesophilic enzyme Klenow fragment of DNA pol I (3′→5′ exo-) (“Kf”); the thermophilic DNA polymerases DV, 9N, Taq, Bst pol I, Th and Ph; and the viral reverse transcriptases HIV RT and MMLV. Kf is a genetically engineered proteolytic product of E. coli pol A gene that encodes DNA polymerase I which retains polymerase activity but has a mutation which abolishes the 3′->5′ and 5′->3′ exonuclease activities. DV is a genetically engineered DNA polymerase purified from a strain of E. coli that carries the DV DNA polymerase gene from Pyrococcus species GB-D. The gene has been engineered to eliminate 3′->5′ proofreading exonuclease activity. 9N is a genetically engineered DNA polymerase that has decreased 3′->5′ proofreading exonuclease activity. 9N is purified from a strain of E. coli that carries a modified 9° N DNA polymerase gene from Thermococcus species (strain 9° N-7). […] Taq polymerase is isolated from E. coli engineered to express Taq polymerase from Thermus aquaticus YT-1. Bst DNA polymerase (Large fragment) is a genetically engineered polymerase that consists of the portion of the Bacillus stearothemmophilus DNA polymerase protein responsible for 5′->3′ polymerase activity but lacks the 5′->3′ exonuclease domain. Th DNA polymerase is a genetically engineered, archaeon-derived DNA polymerase that is a variant of the 9N polymerase described above. The recombinant protein is isolated from E. coli engineered to express 9° NA485L (exo-) DNA polymerase gene, a genetic variant of the native DNA polymerase from Thermococcus species 9° N-7. Ph is a recombinant DNA polymerase that consists of a novel Pyrococcus-like enzyme fused with a double-strand DNA-binding and processivity-enhancing domain.
(§2) Primer extension assays were used to assess the incorporation of 2′F-araNTP on the various DNA templates (Table 1). The DNA primer (PF20) was first radioactively labeled at the 5′-hydroxyl terminus with a radioactive phosphorus probe and the enzyme T4 polynucleotide kinase (T4 PNK) (see Example 1 for General Methods). To assess the incorporation of 2′F-araNTPs, the primer and template were annealed, and the nucleoside 5′-triphosphates added in the presence of enzyme under the conditions specified in Table 2. Time points were obtained by analyzing small aliquots from the reaction mixture through polyacryamide gel electrophoresis (PAGE) and autoradiography.
(§3) Unless otherwise noticed in the Examples described below, the conditions used in the primer extension assays, such as dNTP concentration, reaction temperatures, concentration of Mg^2+, and reaction buffers (provided by the manufacturers, except for the HIV buffer which was prepared in-house) are shown in Table 2.
Primer extension assays were used to assess the incorporation of 2′F-araTTP on the DNA template (PF22). The DNA primer (PF20) was first radioactively labeled at the 5′-hydroxyl terminus with a radioactive phosphorus probe and the enzyme T4 polynucleotide kinase (T4 PNK) according to the manufacturer's specifications (MBI Fermentas Life Sciences, Burlington, ON). Incorporation of the ^32P label was accomplished in reaction mixtures consisting of DNA substrate (200 pmol), 2 μl loxreaction buffer (Buffer A for forward reaction: 500 mM Tris-HCl, pH 7.6 at 25° C., 100 mM MgCl2, 50 mM DTT, 1 mM spermidine and 1 mM EDTA), 1 μl T4 PNK enzyme solution (10 U/1 μl in a solution of 20 mM Tris-HCl, pH 7.5, 25 mM KCl, 0.1 mM EDTA, 2 mM DTT and 50% glycerol), 6 μl [γ-^32P]-ATP solution (6000 Ci/mmol, 10 mCi/ml; Amersham Biosciences, Inc.) and autoclaved sterile water to a final volume of 20 μl. The reaction mixture was incubated for about 45-60 min at 37° C., followed by a second incubation for 10 min at 95° C. to heat denature and deactivate the kinase enzyme.

The target of another assay is T2, Taq DNA polymerase (Taq) (Thermus aquaticus, UniProt P19821).
T2 construct: purchased New England Biolabs; host or cells: E. coli
T2 sequence (P19821 whole entry): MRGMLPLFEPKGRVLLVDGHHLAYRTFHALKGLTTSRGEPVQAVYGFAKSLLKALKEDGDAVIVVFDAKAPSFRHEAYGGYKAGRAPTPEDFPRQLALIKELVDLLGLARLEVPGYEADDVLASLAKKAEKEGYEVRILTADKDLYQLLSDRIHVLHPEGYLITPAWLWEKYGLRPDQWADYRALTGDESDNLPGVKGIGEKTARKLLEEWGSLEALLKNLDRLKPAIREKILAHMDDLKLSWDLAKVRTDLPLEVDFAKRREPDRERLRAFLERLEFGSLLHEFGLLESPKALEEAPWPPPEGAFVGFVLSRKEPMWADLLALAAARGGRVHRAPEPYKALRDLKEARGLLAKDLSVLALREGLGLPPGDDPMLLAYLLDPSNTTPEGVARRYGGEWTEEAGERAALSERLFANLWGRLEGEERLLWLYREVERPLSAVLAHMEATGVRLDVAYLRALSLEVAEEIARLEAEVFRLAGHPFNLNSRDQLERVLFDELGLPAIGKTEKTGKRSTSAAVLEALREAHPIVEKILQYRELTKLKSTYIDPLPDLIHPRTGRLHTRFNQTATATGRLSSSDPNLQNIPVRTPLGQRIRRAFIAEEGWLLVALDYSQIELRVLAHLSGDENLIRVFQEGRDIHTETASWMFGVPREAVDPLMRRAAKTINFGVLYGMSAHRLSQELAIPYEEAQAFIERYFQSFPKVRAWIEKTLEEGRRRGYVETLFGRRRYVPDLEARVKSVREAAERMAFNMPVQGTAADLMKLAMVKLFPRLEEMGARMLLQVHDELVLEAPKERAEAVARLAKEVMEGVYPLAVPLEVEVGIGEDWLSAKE
Kind of assay: Primer extension assay with Taq DNA polymerase. Particulars: for Incorporation of three 2′F-araTTP / 2′F-araCTP (incorporation efficiency): DNA template PF22 (2′F-araTTP) or PF24 (2′F-araCTP); for Enzymatic activity during primer extension reactions: plus dATP, dGTP. The class given is biochemical, Thermus aquaticus YT-1. On the procedure:
as §1, §2, §3
Primer extension assays were used to assess the incorporation of 2′F-araTTP on the DNA template (PF22). The DNA primer (PF20) was first radioactively labeled at the 5′-hydroxyl terminus with a radioactive phosphorus probe and the enzyme T4 polynucleotide kinase (T4 PNK) according to the manufacturer's specifications (MBI Fermentas Life Sciences, Burlington, ON). […]

The test system of assay [2] is Phusion™ High-Fidelity DNA polymerase (Ph). Kind of assay: Primer extension assay with Phusion High-Fidelity DNA polymerase. The assay is classed as biochemical. The settings on record: 55° C.; for Incorporation of three 2′F-araTTP / 2′F-araCTP (incorporation efficiency): DNA template PF22 (2′F-araTTP) or PF24 (2′F-araCTP); for Enzymatic activity during primer extension reactions: plus dATP, dGTP. How it is done:
as §1, §2
(§4) Unless otherwise noticed in the Examples described below, the conditions used in the primer extension assays, such as dNTP concentration, reaction temperatures, concentration of Mg^2+, and reaction buffers (provided by the manufacturers, except for the HIV buffer which was prepared in-house) are shown in Table 2. […]

The target of assay [3] is T3, Klenow fragment DNA polymerase (3′→ 5′ exo-) (Kf) (Escherichia coli, UniProt P00582, D355A/E357A).
T3 construct: the mesophilic enzyme Klenow fragment of DNA pol I (3′→5′ exo-) (“Kf”); purchased New England Biolabs
T3 sequence (P00582 324-928 D355A/E357A): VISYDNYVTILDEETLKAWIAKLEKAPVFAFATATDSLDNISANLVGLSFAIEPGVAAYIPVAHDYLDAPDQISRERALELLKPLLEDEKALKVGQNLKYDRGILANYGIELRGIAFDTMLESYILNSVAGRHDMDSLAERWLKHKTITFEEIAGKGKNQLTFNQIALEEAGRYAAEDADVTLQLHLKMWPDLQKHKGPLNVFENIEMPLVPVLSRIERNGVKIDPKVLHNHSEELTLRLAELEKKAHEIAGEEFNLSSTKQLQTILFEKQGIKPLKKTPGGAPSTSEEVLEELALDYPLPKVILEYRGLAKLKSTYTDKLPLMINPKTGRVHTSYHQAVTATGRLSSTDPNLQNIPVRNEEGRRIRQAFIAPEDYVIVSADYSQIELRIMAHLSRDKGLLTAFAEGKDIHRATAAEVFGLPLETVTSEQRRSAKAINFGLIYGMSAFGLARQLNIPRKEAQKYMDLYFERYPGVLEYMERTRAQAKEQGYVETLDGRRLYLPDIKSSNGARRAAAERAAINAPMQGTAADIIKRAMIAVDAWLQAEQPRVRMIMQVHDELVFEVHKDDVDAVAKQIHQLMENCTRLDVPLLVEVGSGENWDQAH
The class given is biochemical, E. coli. Particulars: 37° C.; for Incorporation of three 2′F-araTTP / 2′F-araCTP (incorporation efficiency): DNA template PF22 (2′F-araTTP) or PF24 (2′F-araCTP); for Enzymatic activity during primer extension reactions: plus dATP, dGTP. On the procedure: as §1, §2, §4

Where [4] appears, read: Example 3, DNA template PF24, 3x 2′F-araCTP, dTTP, 55° C.
Where [5] appears, read: Example 3, DNA template PF24, 3x 2′F-araCTP, dTTP.
The mark [6] stands for this setting: Example 2, DNA template PF22, 3x 2′F-araTTP, dCTP.

`Nc1ccn([C@@H]2O[C@H](COP(=O)(O)OP(=O)(O)OP(=O)(O)O)[C@@H](O)[C@@H]2F)c(=O)n1` [2′F-araCTP, 1-(2-deoxy-2-fluoro-β-D-arabinofuranosyl)cytosine 5′-triphosphate]: the “Incorporation of three 2′F-araTTP / 2′F-araCTP (incorporation efficiency)” value is “None” in assay [1] (37° C.); “++++” in assay [1] (55° C.); “++” on Taq DNA polymerase (Taq) (37° C.); “++++” on Taq DNA polymerase (Taq) (55° C.); “++++” in assay [2]; “++” in assay [3]. The “Enzymatic activity during primer extension reactions” value in assay [1] (setting [4]) is recorded as “++++”; at Taq DNA polymerase (Taq) (setting [4]) it was “++++”; in assay [2] (setting [5]) it was “++++”; in assay [3] (setting [5]), “++”.

On to `Cc1cn([C@@H]2O[C@H](COP(=O)(O)OP(=O)(O)OP(=O)(O)O)[C@@H](O)[C@@H]2F)c(=O)[nH]c1=O` [2′F-araTTP, 1-(2-deoxy-2-fluoro-β-D-arabino-furanosyl)thymine 5′-triphosphate], for which the “Incorporation of three 2′F-araTTP / 2′F-araCTP (incorporation efficiency)” value is recorded as “++” in assay [1] (37° C.); “+++” in assay [1] (55° C.); “++” at Taq DNA polymerase (Taq) (37° C.); “++++” in assay [2]; “++” in assay [3]. Also, the “Enzymatic activity during primer extension reactions” value in assay [1] (Example 2, DNA template PF22, 3x 2′F-araTTP, dCTP, 55° C.) is given as “+++”; at Taq DNA polymerase (Taq) (Example 2, DNA template PF22, 3x 2′F-araTTP, dCTP, at 37° C.) it was “++^b”; in assay [2] (setting [6]), “++++”; in assay [3] (setting [6]), “++”.
